Experimental data taken from patent US6900193B1, “Structural modification of 19-norprogesterone I: 17-α-substituted-11-β-substituted-4-aryl and 21-substituted 19-norpregnadienedione as new antiprogestational agents” (The United States of America as represented by the …, priority 1996, dated 2005).
Marks after values point to notes of the source that are not given here.

What was measured:
[1] = test system: progesterone-induced endometrial proliferation; test: AntiClauberg test; type: in vivo, rabbit; details: Table 2, CDB-2914 = 100 (assigned)
Method in brief: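 Immature NZW rabbits were estradiol-primed s.c. for 6 days, then given progesterone 0.8 mg/day s.c. plus compound orally or s.c. for 5 days. Uteri were sectioned and H&E-scored for endometrial glandular proliferation (McPhail). Percent inhibition was calculated per dose versus progesterone-only animals.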

[2] = target: T1, glucocorticoid receptor (estrogen-primed rabbit thymus) (Oryctolagus cuniculus, UniProt P59667); test: Relative binding affinity, glucocorticoid receptor; details: Table 2; estrogen-primed rabbit thymus; dexamethasone = 100%
T1 construct: preparation of cytosols for the progesterone and glucocorticoid receptor assays; from tissue; host or cells: thymus of estradiol-primed immature female New Zealand White rabbits (cytosol)
T1 sequence (P59667 1-772): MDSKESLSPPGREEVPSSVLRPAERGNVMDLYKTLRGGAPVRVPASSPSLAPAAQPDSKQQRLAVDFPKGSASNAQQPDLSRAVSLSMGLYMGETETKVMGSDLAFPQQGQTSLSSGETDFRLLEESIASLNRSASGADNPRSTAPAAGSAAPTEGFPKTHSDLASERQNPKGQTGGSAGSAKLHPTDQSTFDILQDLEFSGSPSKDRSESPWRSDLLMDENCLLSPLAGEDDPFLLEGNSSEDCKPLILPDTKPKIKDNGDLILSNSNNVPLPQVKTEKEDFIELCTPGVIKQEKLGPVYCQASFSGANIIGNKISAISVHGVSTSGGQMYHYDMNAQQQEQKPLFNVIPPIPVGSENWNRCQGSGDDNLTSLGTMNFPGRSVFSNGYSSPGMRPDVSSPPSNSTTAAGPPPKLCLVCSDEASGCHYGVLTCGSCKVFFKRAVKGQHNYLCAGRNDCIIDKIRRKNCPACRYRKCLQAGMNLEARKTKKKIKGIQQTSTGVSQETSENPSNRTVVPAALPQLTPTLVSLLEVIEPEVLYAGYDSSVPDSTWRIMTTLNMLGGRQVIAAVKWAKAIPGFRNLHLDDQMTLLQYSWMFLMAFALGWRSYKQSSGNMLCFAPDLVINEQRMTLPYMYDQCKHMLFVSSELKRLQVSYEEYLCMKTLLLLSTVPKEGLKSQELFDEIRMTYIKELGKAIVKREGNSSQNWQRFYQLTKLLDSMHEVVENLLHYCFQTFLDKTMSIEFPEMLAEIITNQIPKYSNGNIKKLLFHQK

[3] = target: T2, progesterone receptor (estrogen-primed rabbit uterus) (Oryctolagus cuniculus, UniProt P06186); test: Relative binding affinity, progesterone receptor; details: Table 2; estrogen-primed rabbit uterus; progesterone = 100%
T2 construct: preparation of cytosols for the progesterone and glucocorticoid receptor assays; from tissue; host or cells: uterus of estradiol-primed immature female New Zealand White rabbits (cytosol)
T2 sequence (P06186 1-930): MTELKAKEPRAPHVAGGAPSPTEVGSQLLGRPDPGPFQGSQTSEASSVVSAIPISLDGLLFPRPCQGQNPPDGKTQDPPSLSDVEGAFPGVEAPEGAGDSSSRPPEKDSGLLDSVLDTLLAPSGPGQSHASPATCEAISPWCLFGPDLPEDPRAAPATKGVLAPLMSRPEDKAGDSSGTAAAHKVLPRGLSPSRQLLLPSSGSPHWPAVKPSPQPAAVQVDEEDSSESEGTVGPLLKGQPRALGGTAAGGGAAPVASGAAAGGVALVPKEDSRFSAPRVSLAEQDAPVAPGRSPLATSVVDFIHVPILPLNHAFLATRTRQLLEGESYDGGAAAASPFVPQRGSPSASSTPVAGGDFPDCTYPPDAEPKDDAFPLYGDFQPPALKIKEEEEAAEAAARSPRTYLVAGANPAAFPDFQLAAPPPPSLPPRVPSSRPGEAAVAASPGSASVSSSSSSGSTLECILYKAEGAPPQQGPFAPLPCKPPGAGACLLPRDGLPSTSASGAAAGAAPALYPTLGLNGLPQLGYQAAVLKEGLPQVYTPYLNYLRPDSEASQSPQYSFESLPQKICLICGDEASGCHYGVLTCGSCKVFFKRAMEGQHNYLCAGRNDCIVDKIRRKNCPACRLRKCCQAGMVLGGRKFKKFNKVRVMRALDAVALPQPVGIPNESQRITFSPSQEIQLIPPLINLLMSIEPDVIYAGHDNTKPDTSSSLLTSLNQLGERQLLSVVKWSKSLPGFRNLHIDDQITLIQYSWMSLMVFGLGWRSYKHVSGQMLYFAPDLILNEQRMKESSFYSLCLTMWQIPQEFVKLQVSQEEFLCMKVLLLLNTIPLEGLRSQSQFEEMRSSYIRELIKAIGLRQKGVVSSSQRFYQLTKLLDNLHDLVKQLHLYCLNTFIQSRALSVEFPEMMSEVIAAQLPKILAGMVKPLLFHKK

[4] = test system: pregnancy (number and condition of conceptuses); test: Postcoital test; type: in vivo, rat; details: rat, days 4-6 subcu

Row | Compound | BIOLOGICAL ACTIVITY antiClauberg (subcu) ([1]; subcutaneous) | BINDING AFFINITY Glucocortic [2] | BINDING AFFINITY Progester [3] | Postcoital MED100 (*) [4] | BIOLOGICAL ACTIVITY antiClauberg ([1]; oral)
1 | CCCCCCC(=O)O[C@]1(C(C)=O)CC[C@H]2[C@@H]3CCC4=CC(=O)CCC4=C3[C@@H](c3ccc(N(C)C)cc3)C[C@@]21C [Compound 69D, 17α-Heptanoyloxy-11β-[4-(N,N-dimethylamino)phenyl]-19-norpregna-4,9-diene-3,20-dione] | weak | 89% | 40% | inac- | 
2 | CCC(=O)OC1(C(C)=O)CCC2C3CCC4=CC(=O)CCC4=C3C(c3ccc(N(C)C)cc3)CC21C (stereo not drawn) [Compound 69C, 17α-Propionoxy-11β-[4-(N,N-dimethylamino)phenyl]-19-norpregna-4,9-diene-3,20-dione] |  | 49% | 91% | 2* mg/day | ˜10
